Measured values published in patent publication US5086054A, “Novel arylcycloalkanepolyalkylamines” (SRI International, priority 1990, dated 1992).
Values joined by “and” are separate entries in the source; they are usually repeats but may differ in a detail not shown here. Identical values can stand only once. “Also recorded” adds a separate entry of the source. Counter-ions that a name gives are not always drawn. Like-named read-outs stand apart in the source and are kept apart here.

How the values were obtained:
SIGMA RECEPTOR = molecular target: T1, SIGMA RECEPTOR (Cavia porcellus, UniProt Q60492); assay: Sigma receptor binding assay ([3H]-d-SKF-10,047 displacement, brain membranes); parameters: species or system guinea-pig (male Hartley); settings: for SIGMA RECEPTOR SLOPE: slope of dose response curve; for potency at σ receptors (in words): hydrochloride
T1 construct: Two milliter aliquots of the brain membrane preparation, containing 1.7 mg of protein; tissue Pel-Freeze (Rogers, Arkansas); host or cells: guinea-pig brains plus cerebella, membranes
T1 sequence (Q60492 whole entry): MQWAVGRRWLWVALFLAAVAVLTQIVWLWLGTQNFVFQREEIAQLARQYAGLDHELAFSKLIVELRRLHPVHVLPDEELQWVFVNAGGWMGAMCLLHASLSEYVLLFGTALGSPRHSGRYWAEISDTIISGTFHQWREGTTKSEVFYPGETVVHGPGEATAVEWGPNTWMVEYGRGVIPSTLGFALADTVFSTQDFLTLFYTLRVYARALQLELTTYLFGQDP
Experimental: (§1) This example illustrates testing of compounds in receptor binding assays.
(§2) Frozen brains from male Hartley guinea-pigs were obtained from Pel-Freeze (Rogers, Arkansas).
(§3) The brains plus cerebella were homogenized in 10 volumes (v/w) of 0.1M, pH 7.4, ice-cold Tris-HCl buffer with a Brinkmann polytron at setting 4 for 20 seconds. The homogenates were centrifuged at 20,000×g for 20 minutes at 4° C. The pellets were suspended in 10 volumes of ice-cold water and, after sitting on ice for 10 minutes, were centrifuged 30 minutes at 20,000×g at 4° C. The resulting pellets were resuspended in the above Tris buffer in ratio 1:100 (w/v) for σ receptor assays or in 5 mM Tris-HCl having pH 7.4, for PCP receptor assays. The final suspension was homogenized with a dounce glass-glass tissue grinder Wheaton "200", at small clearance (B), with three strokes before use. Two milliter aliquots of the brain membrane preparation, containing 1.7 mg of protein, were incubated in quadruplicate for one hour at 23° C. with competing mixture of ligand and radioligand. For σ receptors, [^3 H]-d-SKF-10,047, 2 nM was used. For PCP receptors, [^3 H] TCP [^3 H]-1-[1-(2-thienyl)cyclohexyl]piperidine), 1 nM was used. The nonspecific bindings were defined by 0.1 mM d-SKF-10,047 and 0.1 mM phencyclidine respectively for σ and PCP receptors. After incubation, free ligand was separated from bound ligand by rapid filtration through Whatman GF/C filters. The filters had been soaked before use in isoamyl alcohol-saturated water to prevent nonspecific [^3 H]-d-SKF-10,047 binding to the filter. In the PCP receptor assay, the filter was soaked in 0.5% polyethylenimine to reduce the filter binding of [^3 H]-TCP. After filtration, the trapped tissue was washed three times with 4 ml aliquots of 0.1 M ice-cold Tris buffer at pH 7.4 for σ receptors and 5 mM, ice-cold Tris buffer pH 7.4 for PCP receptors. The filters were transferred to 5 ml of liquid scintillation fluid and the retained radioactivity was measured by liquid scintillation spectrometry.

PCP RECEPTOR = assay: PCP receptor binding assay ([3H]-TCP displacement, brain membranes); parameters: species or system guinea-pig (male Hartley); settings: for potency at PCP receptors (in words): hydrochloride
Experimental: as §1, §2, §3
(§4) Programs in Biomed. 17:107 (1983)].

[1] = humans; cited from earlier work
[2] = literature; cited from earlier work
DOPAMINE D2 = molecular target: T2, DOPAMINE D2 (Cavia porcellus, UniProt H0VE83); assay: Dopamine D2 receptor binding ([3H]-spiroperidol); parameters: species or system guinea-pig
T2 construct: printed as cerebral cortical tissue, [3H]spiroperidol, haloperidol blank
T2 sequence (H0VE83 entry or part of it): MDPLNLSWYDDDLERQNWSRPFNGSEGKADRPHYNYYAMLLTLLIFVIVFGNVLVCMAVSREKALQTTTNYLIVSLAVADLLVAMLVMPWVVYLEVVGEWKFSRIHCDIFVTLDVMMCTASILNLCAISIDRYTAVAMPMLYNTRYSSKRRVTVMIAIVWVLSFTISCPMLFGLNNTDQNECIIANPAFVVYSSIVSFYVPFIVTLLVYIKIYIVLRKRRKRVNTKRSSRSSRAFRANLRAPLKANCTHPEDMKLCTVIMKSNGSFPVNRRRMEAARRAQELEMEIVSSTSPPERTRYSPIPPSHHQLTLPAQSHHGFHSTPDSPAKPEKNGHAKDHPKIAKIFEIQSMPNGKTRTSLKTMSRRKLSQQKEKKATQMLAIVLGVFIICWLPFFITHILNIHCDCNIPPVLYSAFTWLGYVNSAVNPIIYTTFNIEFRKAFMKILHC
Excerpt: (§5) This example illustrates the testing of compounds of this invention in dopamine D2, 5-HT2, muscarinic acetylcholine, α1 -adrenoceptor and β-adrenoceptor receptor assays. The receptor assay methods are described in Eur. J. Pharmacol., 155:345 (1988) except that in the β-adrenoceptor assay, [^125 I]-pindolol was used instead of [^3 H] dihydroalprenolol.
(§6) In this study, guinea-pig brains were used for binding studies. Homogenization and centrifugation procedures for preparation of brain membranes for each receptor assay were the same as described in Example 4 for the σ and PCP receptors. However, brain regions, tissue contents, and buffers may differ depending on the assay. Conditions of binding assays for various receptors were as follows:
For dopamine D2 assay, 3 H-spiroperidol (0.15 nM) was incubated in a 2 ml assay (50 mM Tris-HCl, pH 7.4) for 2 hours at 23° C. with membranes from 12 mg of cerebral cortical tissue.
(§7) Filtration and washing conditions were the same as described above for the σ receptor assay. Nonspecific binding for each receptor was defined by the inclusion of 1 μM haloperidol for dopamine D2, 1 μM haloperidol for 5-HT2, 10 μM scopolamine for muscarinic acetylcholine, 10 μM prazosin for α1 -adrenoceptor, and 0.2 μM 1-propranolol for β-adrenoceptor. Retained radioactivity was measured by liquid scintillation spectrometry except for ^125 I-pindolol which was measured by the LKB gamma counter.
as §4

MUSCARINIC ACETYLCHOLINE = type: binding, guinea-pig
Excerpt: as §5, §6
For muscarinic acetylcholine assay, […]) [^3 H]-quinuclidinyl benzylate ([^3 H]-QNB) was incubated in a 2 ml assay (50 mM Tris-HCl, pH 7.4) for 2 hours at 23° C. with membranes from 2 mg of whole brain minus cerebellum.
as §7, §4

5-HT2 = 5-HT2 (Cavia porcellus, UniProt A0A286Y537); assay: 5-HT2 receptor binding; parameters: species or system guinea-pig; settings: for IC50: Table 4, IC50 and nM only stated in text, read-out: 5-HT2
Chain of 5-HT2 (A0A286Y537 1-470): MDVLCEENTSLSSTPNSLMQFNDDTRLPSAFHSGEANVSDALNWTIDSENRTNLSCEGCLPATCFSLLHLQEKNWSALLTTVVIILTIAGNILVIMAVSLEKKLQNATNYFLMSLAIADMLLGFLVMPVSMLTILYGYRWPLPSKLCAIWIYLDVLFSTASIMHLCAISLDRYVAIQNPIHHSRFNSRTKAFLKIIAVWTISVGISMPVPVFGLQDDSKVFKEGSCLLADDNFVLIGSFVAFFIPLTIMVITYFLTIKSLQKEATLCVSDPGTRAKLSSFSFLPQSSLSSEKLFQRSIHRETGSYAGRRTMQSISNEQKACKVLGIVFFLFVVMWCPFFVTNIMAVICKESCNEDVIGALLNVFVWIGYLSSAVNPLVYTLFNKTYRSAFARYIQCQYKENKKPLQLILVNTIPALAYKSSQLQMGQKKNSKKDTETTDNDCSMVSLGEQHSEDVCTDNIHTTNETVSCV
Excerpt: as §5, §6, §7, §4

α1 -ADRENOCEPTOR = assay: α1-adrenoceptor binding ([3H]-prazosin); parameters: species or system guinea-pig; settings: Table 4; IC50 and nM only stated in text; read-out: α1 -ADRENOCEPTOR
Excerpt: as §5, §6
For α1 -adrenoceptor assay, [^3 H]-prazosin (0.4 nM) was incubated in a 1 ml assay (50 mM Tris-HCl, pH 7.4) for 1 hour at 23° C. with membranes from 1 mg of whole brain minus cerebellum.
as §7, §4

β-ADRENOCEPTOR = assay: β-adrenoceptor binding ([125I]-pindolol); parameters: species or system guinea-pig; settings: Table 4; IC50 and nM only stated in text; read-out: β-ADRENOCEPTOR
Excerpt: as §5, §6
For β-adrenoceptor, [^125 I]-pindolol (0.05 nM) was incubated in a 1 ml assay (50 mM Tris-HCl, pH 7.4) for 1 hr at 23° C. with membranes from 1 mg of whole brain minus cerebellum.
as §7, §4

[3] = Table 1, mean ± error (n), read-out: PCP RECEPTOR IC50
[4] = Table 4, IC50 and nM only stated in text, read-out: SIGMA
[5] = Table 4, IC50 and nM only stated in text, read-out: PCP
[6] = Table 4, IC50 and nM only stated in text, read-out: MUSCARINIC ACETYLCHOLINE
[7] = read-out: potency (IC50) at muscarinic acetylcholine receptor

SMILES | SIGMA RECEPTOR SLOPE (SIGMA RECEPTOR; Table 1) | IC50 (PCP RECEPTOR; [3]) [nM] | IC50 (SIGMA RECEPTOR; [4]) [nM] | potency at σ receptors (in words) (SIGMA RECEPTOR) | IC50 (SIGMA RECEPTOR; read-out: IC50 at σ receptors) | IC50 (PCP RECEPTOR; [5]) [nM] | potency at PCP receptors (in words) (PCP RECEPTOR) | potency at dopamine D-2 receptors (in words) (DOPAMINE D2) | potency at muscarinic acetylcholine receptors (in words) (MUSCARINIC ACETYLCHOLINE) | IC50 (MUSCARINIC ACETYLCHOLINE; [6]) [nM] | IC50 (MUSCARINIC ACETYLCHOLINE; [7]) [nM] | potency at 5-HT2 receptors (in words) (5-HT2) | IC50 (5-HT2) [nM] | IC50 (α1 -ADRENOCEPTOR) [nM] | IC50 (β-ADRENOCEPTOR) [nM] | other results
c1ccc(C2(N3CCCCC3)CCCCC2)cc1 [Compound 1, 1-(1-phenylcylohexyl)piperidine, reference compound] | 0.95 ± 0.12 | 45 ± 5 |  |  |  |  |  |  |  |  |  |  |  |  |  | psychotic reactions [1]: causes psychotic reactions such as hallucinations, thought disorders and paranoid delusions similar to an acute schizophrenic episode; motor and behavioral effects [2]: alter gross motor activity and spatial alternation performance and to induce stereotypic movements
O=C(OCCN1CCCCC1)C1(c2ccccc2)CCCCC1 [Compound 3, 2-(1-Piperidino)ethyl 1-phenylcyclohexane-1-carboxylate hydrochloride] | 0.45 ± 0.04 | 34900 | 26 ± 7 | increased the potency of the compound in the σ receptor assay; also recorded: very potent in the σ assay; also recorded: very high | < 100 nM | 34900 | reduced the potency in the PCP receptor assay; also recorded: inactive in the PCP assay; also recorded: very weak or inactive in the PCP assay; also recorded: negligible; also recorded: low potency at PCP receptors | moderate potencies at dopamine D-2 and 5-HT2 receptors | quite potent at muscarinic acetylcholine receptors | 46 ± 7 | 46 | moderate potencies at dopamine D-2 and 5-HT2 receptors | 3660 | 24100 | 80400 | IC50 (SIGMA RECEPTOR; Table 1, mean ± error (n), read-out: SIGMA RECEPTOR IC50): 24 nM; increased potency for σ receptors (SIGMA RECEPTOR; relative to PCP (1)): more than 300 times; decreased potency for PCP receptors (PCP RECEPTOR; relative to PCP (1)): about 700 times
O=C(OCCN1CCCC1)C1(c2ccccc2)CCCCC1 [Compound 8, 2-(1-Pyrrolidino)ethyl 1-phenylcyclohexane-1-carboxylate hydrochloride] | 0.50 ± 0.02 | 64700 | 5.1 ± 1.7 | σ receptor potency increased; also recorded: very high | 5 nM and < 100 nM | 64700 | inactive in the PCP assay; also recorded: negligible; also recorded: low potency at PCP receptors | moderate potencies at dopamine D-2 and 5-HT2 receptors | quite potent at muscarinic acetylcholine receptors | 123 ± 16 | 23 | moderate potencies at dopamine D-2 and 5-HT2 receptors | 2930 | 23200 | 85000 | IC50 (PCP RECEPTOR; read-out: IC50 / potency for PCP receptors): ~64000 nM
CCN(CC)CCOC(=O)C1(c2ccccc2)CCCCC1.Cl [Compound 15, 2-(Diethylamino)ethyl 1-phenylcyclohexane-1-carboxylate hydrochloride] | 0.66 ± 0.16 | 40900 | 30 ± 5 | σ receptor potency increased; also recorded: very potent in the σ assay; also recorded: very high | < 100 nM | 40900 | inactive in the PCP assay; also recorded: very weak or inactive in the PCP assay; also recorded: negligible; also recorded: low potency at PCP receptors | moderate potencies at dopamine D-2 and 5-HT2 receptors | quite potent at muscarinic acetylcholine receptors | 189 ± 35 | 189 | moderate potencies at dopamine D-2 and 5-HT2 receptors | 2180 | 30100 | 81900 | 
